PMC3038857, “Using Nuclear Receptor Activity to Stratify Hepatocarcinogens” (PLoS ONE, 2011)

Tests used:
[1] = molecular target: T1, PPARg (PPARG) (Homo sapiens, UniProt P37231); assay: NCGC_PPARg_Agonist: GAL4 BLAM Reporter gene assay: PPARg; format: cell-based; parameters: expressed in transfected cells; host or cells: HEK293; conditions: agonist mode; scale not given, looks like -log10 of molar active concentration; 0 = no activity
T1 sequence (P37231 1-505): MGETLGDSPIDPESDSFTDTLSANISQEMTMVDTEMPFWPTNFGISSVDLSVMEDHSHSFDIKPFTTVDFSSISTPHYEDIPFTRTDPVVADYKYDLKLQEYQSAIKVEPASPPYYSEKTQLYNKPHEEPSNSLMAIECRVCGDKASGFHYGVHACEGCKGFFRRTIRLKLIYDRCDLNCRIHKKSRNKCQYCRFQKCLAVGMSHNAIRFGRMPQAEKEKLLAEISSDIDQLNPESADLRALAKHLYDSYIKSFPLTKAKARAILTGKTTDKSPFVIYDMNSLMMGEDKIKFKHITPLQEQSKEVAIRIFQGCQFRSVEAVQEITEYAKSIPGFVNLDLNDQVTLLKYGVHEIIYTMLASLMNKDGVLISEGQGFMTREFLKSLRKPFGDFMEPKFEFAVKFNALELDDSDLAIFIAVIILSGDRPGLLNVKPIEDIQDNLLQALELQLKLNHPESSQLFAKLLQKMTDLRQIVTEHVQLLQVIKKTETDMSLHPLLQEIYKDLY
Experimental: These assays measure binding constants and enzyme inhibition values for nuclear receptors. The targets include [drawing 67] , [drawing 68] , [drawing 69] , [drawing 70] , [drawing 71] , [drawing 72] , [drawing 73] , [drawing 74] , [drawing 75] and [drawing 76] . Each of the nuclear receptor targets was measured in agonist mode. Assays were run at the NIH Chemical Genomics Center (Rockville, MD).
Cell-based HTS Assays: These assays measuring binding constants and enzyme inhibition values for nuclear receptors. The targets include AR, ER, FXR, LXR, PPARα, PPARδ, PPARγ, RXRα, RXRβ and PXR. Each of the nuclear receptor targets was measured in both agonist and antagonist mode, but the antagonist data is still undergoing analysis due to possible interference between cytotoxicity and assay activity, so antagonist mode data were not used in the present analysis. Assays were run at the NIH Chemical Genomics Center (Rockville, MD) as part of the Tox21 collaboration. […] The R^2 was required to be ≥0.5. Values where only the highest concentration exceeded 50% activity were excluded to eliminate weak or false positives. Detailed description of the methods, data and analysis methods for this dataset will be presented in a separate publication.

[2] = molecular target: Human ER (ESR1) (Homo sapiens, UniProt P03372); assay: NVS_NR_hER: Human ER 3H-Estradiol (cell-free HTS); format: binding; conditions: scale not given, looks like -log10 of molar active concentration, 0 = no activity
Sequence of Human ER (ESR1) (P03372 whole entry): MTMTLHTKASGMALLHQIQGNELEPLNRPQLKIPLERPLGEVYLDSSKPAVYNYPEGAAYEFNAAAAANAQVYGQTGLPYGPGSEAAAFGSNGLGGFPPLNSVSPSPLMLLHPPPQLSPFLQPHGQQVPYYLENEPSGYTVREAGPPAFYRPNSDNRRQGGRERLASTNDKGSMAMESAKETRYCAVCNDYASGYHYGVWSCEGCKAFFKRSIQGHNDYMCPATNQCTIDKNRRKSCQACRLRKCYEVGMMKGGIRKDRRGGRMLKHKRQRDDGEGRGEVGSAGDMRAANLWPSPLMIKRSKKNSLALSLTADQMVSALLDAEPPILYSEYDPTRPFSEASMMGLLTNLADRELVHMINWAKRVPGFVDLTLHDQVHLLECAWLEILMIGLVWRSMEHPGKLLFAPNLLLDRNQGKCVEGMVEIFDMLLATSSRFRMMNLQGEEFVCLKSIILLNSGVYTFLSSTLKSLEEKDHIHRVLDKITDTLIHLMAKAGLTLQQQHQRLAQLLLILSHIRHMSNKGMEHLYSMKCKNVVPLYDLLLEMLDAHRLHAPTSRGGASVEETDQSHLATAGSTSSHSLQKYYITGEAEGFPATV
Description: These are a collection of biochemical assays measuring binding constants and enzyme inhibition values. Chemicals were initially screened at a single concentration in duplicate wells at a concentration of 10 [drawing 63] M for cytochrome P-450 assays and 25 [drawing 64] M for all others. […] These assays were run by Caliper Life Sciences (Hanover, MD) under contract to EPA. Short assay descriptions are available at: http://www.caliperls.com/products/contract-research/in-vitro/.
Cell-free HTS Assays: A collection of biochemical assays measuring binding constants and enzyme inhibition values. […] These assays were run by Caliper Life Sciences (Hanover, MD) under contract to EPA. Short assay descriptions are available at http://www.caliperls.com/products/contract-research/in-vitro/. Values for all endpoints were imported into GeneData Screener (Basel, Switzerland) and normalised to solvent controls from the same plate as the tested compounds and expressed as percent of neutral control. Concentration-response curves were fit in GeneData Screener (Basel, Switzerland) Condeseo module using the Hill equation and AC50 values were determined. […] Detailed description of the methods, data and analysis methods for this dataset are described in a separate publication.

[3] = tested on: ABCB11; assay: CLZD_ABCB11: Change in expression of ABCB11 (primary human hepatocytes); format: cell-based; conditions: 24 hr
Experimental: This is a collection of multiplexed gene expression assays focused on Phase I and II xenobiotic metabolizing enzymes and transporters. Human primary cell cultures were treated with chemicals at 5 concentrations (0.004-40 [drawing 42] M) for 6, 24 and 48 hr. Concentration- and time-response profiles of chemicals were measured by the expression of key nuclear receptor target genes, activities of CYP1A enzymes (EROD), and cell morphology. Fourteen gene targets were monitored by quantitative nuclease protection assay including: six representative cytochrome P-450 genes, four hepatic transporters, three Phase II conjugating enzymes, and one endogenous metabolism gene involved in cholesterol synthesis. The target genes associated with nuclear receptor pathways are as follows: [drawing 43] and [drawing 44] with [drawing 45]; [drawing 46] , [drawing 47] , [drawing 48] , [drawing 49] , [drawing 50] and [drawing 51] with [drawing 52]; [drawing 53] , [drawing 54] , [drawing 55] and [drawing 56] with [drawing 57]; [drawing 58] with [drawing 59]; and [drawing 60] with [drawing 61] . Assays were run in primary human hepatocyte cultures by CellzDirect Invitrogen Inc. (Durham, NC), in collaboration with EPA.
Multiplexed Gene Expression in Human Primary Hepatocytes: This is a collection of multiplexed gene expression assays focused on Phase I and II metabolic enzymes and transporters. […] Fourteen gene targets were monitored by quantitative nuclease protection assay: six representative cytochrome P450 genes, four hepatic transporters, three Phase II conjugating enzymes, and one endogenous metabolism gene involved in cholesterol synthesis. Cells were exposed at 5 concentrations (0.004-40 µM) for 6, 24 or 48 hr. Gene targets are sentinels for five nuclear receptor signaling pathways: AhR, CAR, PXR, FXR, and PPARα. All gene are associated with nuclear receptor pathways: CYP1A1 and CYP1A2 with AHR; ABCB1, ABCG2, CYP2B6, CYP2C9, CYP2C19 and UGT1A1 with CAR; CYP3A4, GSTA2, SLCO1B1 and SULT2A1 with PXR; HMGCS2 with PPARA; and ABCB11 with FXR. […] Detailed description of the methods, data and analysis methods for this dataset will be presented in a separate publication.

[4] = tested on: LXR (NR1H3); assay: ATG_DR4_LXR_CIS: Factorial reporter gene assay (HepG2); format: cell-based, human; parameters: scale not given here; conditions: scale not given, looks like -log10 of molar active concentration, 0 = no activity
Experimental: A multiple reporter transcription unit (MRTU) library consisting of 48 transcription factor binding sites was transfected into the HepG2 human liver hepatoma cell line. In addition to the cis-acting reporter genes (CIS), a modification of the approach was used to generate a trans-system (TRANS) with a mammalian one-hybrid assay consisting of an additional 25 MRTU library reporting the activity of nuclear receptor super-family members. […] These assays were performed by Attagene Inc. (Morrisville NC) under contract to EPA.
In addition to the cis-acting reporter genes (CIS), a modification of the approach was used to generate a trans-system (TRANS) with a mammalian one-hybrid assay consisting of an additional 25 MRTU library reporting the activity of nuclear receptor super-family members. […] Chemicals were then tested in the CIS and TRANS assays at seven concentrations starting at the MTC and followed by three-fold serial dilutions. These assays were performed by Attagene Inc. (Morrisville NC) under contract to EPA. Detailed description of the methods, data and analysis methods for this dataset will be presented in a separate publication.

[5] = scale not given, looks like -log10 of molar active concentration, 0 = no activity

Compound	NCGC_PPARg_Agonist [1]	NVS_NR_hER [2]	CLZD_ABCB11_24 [3, 5]	ATG_DR4_LXR_CIS [4]	CLZD_ABCB11_24 [3]
COC(=O)c1ccccc1CS(=O)(=O)NC(=O)Nc1nc(OC)cc(OC)n1 [r33]	0	0	0	0	–
CC(C)N1C(=O)c2ccccc2NS1(=O)=O [r37]	0	0	0	4.284	–
COc1ccc(-c2ccccc2)cc1NNC(=O)OC(C)C [r38]	0	0	0	0	–
Cc1c(COC(=O)C2C(/C=C(\Cl)C(F)(F)F)C2(C)C)cccc1-c1ccccc1 (stereo not shown) [r39]	0	0	0	0	–
CC(C)(c1ccc(O)cc1)c1ccc(O)cc1 [r40]	0	6.151	0	0	–
OB(O)O [r41]	0	0	0	0	–
O=C(Nc1ccccc1-c1ccc(Cl)cc1)c1cccnc1Cl [r42]	0	0	0	0	–
CCC(C)n1c(=O)[nH]c(C)c(Br)c1=O (stereo not shown) [r43]	0	0	0	0	–
N#Cc1cc(Br)c(O)c(Br)c1 [r44]	0	0	0	0	–
CC(C)N1C(=O)N(c2ccccc2)CS/C1=N\C(C)(C)C [r45]	0	0	0	0	–
CCCCOCN(C(=O)CCl)c1c(CC)cccc1CC [r46]	0	0	0	0	–
C=CCOC(=O)C(C)(C)OC(=O)c1cc(-n2c(=O)cc(C(F)(F)F)n(C)c2=O)ccc1Cl [r47]	0	0	0	0	–
CCC(C)Nc1c([N+](=O)[O-])cc(C(C)(C)C)cc1[N+](=O)[O-] (stereo not shown) [r48]	0	0	0	0	–
CCSC(=O)N(CC(C)C)CC(C)C [r49]	0	0	0	0	–
O=C1C2CC=CCC2C(=O)N1SC(Cl)(Cl)Cl (stereo not shown) [r51]	0	0	0	0	–
CNC(=O)Oc1cccc2ccccc12 [r52]	–	0	0	0	–
CC1=C(C(=O)Nc2ccccc2)SCCO1 [r53]	0	0	0	0	–
CCOC(=O)C(Cl)Cc1cc(-n2nc(C)n(C(F)F)c2=O)c(F)cc1Cl (stereo not shown) [r54]	0	0	0	0	–
Nc1cnn(-c2ccccc2)c(=O)c1Cl [r56]	0	0	0	0	–
COc1cc(Cl)c(OC)cc1Cl [r57]	0	0	0	0	–
N#Cc1c(Cl)c(Cl)c(Cl)c(C#N)c1Cl [r58]	0	0	0	0	–
CC(C)OC(=O)Nc1cccc(Cl)c1 [r59]	0	0	0	0	–
Cc1ccccc1CO[C@@H]1C[C@@]2(C(C)C)CC[C@]1(C)O2 [r64]	0	–	0	0	–
CCc1nn(C)c(C(=O)NCc2ccc(C(C)(C)C)cc2)c1Cl [r291]	–	–	–	–	4.551
